Experimental data from PubChem BioAssay (NCI).
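Dose response: 5 concentrations. Exposure: 48 h. Format: 96-well plates. Endpoint: linear interpolation; highest concentration if not reached. TGI is the concentration that stops growth completely.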

Assays:
Assay in all cases: growth of human tumour cells (NCI), 48 h
EKVX NSCLC = test system: EKVX NSCLC
NCI-H226 lung = test system: NCI-H226 lung
786-0 renal = test system: 786-0 renal
A549 NSCLC = test system: A549 NSCLC
SW-620 colon = test system: SW-620 colon
CAKI-1 renal = test system: CAKI-1 renal
OVCAR-5 ovarian = test system: OVCAR-5 ovarian
RPMI-8226 leukemia = test system: RPMI-8226 leukemia
DU-145 prostate = test system: DU-145 prostate
COLO 205 colon = test system: COLO 205 colon
NCI-H522 lung = test system: NCI-H522 lung

| SMILES | TGI (EKVX NSCLC) | TGI (NCI-H226 lung) | TGI (786-0 renal) | TGI (A549 NSCLC) | TGI (SW-620 colon) | TGI (CAKI-1 renal) | TGI (OVCAR-5 ovarian) | TGI (RPMI-8226 leukemia) | TGI (DU-145 prostate) | TGI (COLO 205 colon) | TGI (NCI-H522 lung) |
| --- | --- | --- | --- | --- | --- | --- | --- | --- | --- | --- | --- |
| O=C(OCC1OC2OC(c3ccccc3)(n3ccc4c([N+](=O)[O-])ccnc43)OC2C1OC(=O)c1ccccc1)c1ccccc1 (stereo not drawn) | > 100 µM | > 100 µM | > 100 µM | > 100 µM | > 100 µM | > 100 µM | > 100 µM | > 100 µM | > 100 µM | – | – |
| O=c1nc2c(c(-c3ccccc3Cl)[nH]1)COC/C2=C\c1ccccc1Cl | 97.4 µM | > 100 µM | > 100 µM | – | > 100 µM | > 100 µM | > 100 µM | > 100 µM | > 100 µM | > 100 µM | – |
| CCCC(C)NC1=C(NC(C)=O)C(=O)c2ccccc2C1=O (stereo not drawn) | > 100 µM | > 100 µM | > 100 µM | > 100 µM | > 100 µM | – | – | – | – | > 100 µM | > 100 µM |
| Cc1cc(C)[n+](CCOc2ccc(/C(=C(/Cl)c3ccccc3)c3ccccc3)cc2)c(C)c1 | 13.2 µM | 6.37 µM | 8.35 µM | 17.4 µM | 11.1 µM | 20.3 µM | 12.4 µM | 3.59 µM | – | 0.961 µM | 2.62 µM |
| O=C(O)CC[N+]1=CCC(c2ccccc2)(c2ccccc2)O1 | > 100 µM | > 100 µM | > 100 µM | > 100 µM | > 100 µM | > 100 µM | > 100 µM | – | > 100 µM | > 100 µM | > 100 µM |
| CCc1ccc2oc(-c3cc(O)c(-c4nc5cc(CC)ccc5o4)cc3O)nc2c1 | > 100 µM | > 100 µM | > 100 µM | > 100 µM | > 100 µM | – | > 100 µM | > 100 µM | > 100 µM | > 100 µM | – |
| COC(=O)C1=C2SCc3cccc(c3)CSC3=C(C(=O)OC)SC(=C(S2)S1)S3 | – | > 100 µM | > 100 µM | > 100 µM | > 100 µM | > 100 µM | – | > 100 µM | > 100 µM | > 100 µM | – |
| COC(=O)[C@H](Cc1ccccc1)NC(=O)[C@H](Cc1ccccc1)NC(=O)[C@@H]1CCCN1C(=O)N[C@H]1C2C=CC(C2)C1C(=O)N1CCC[C@H]1C(=O)N[C@@H](C)C(=O)N[C@H](C(=O)OC)C(C)C (stereo partly drawn) | > 100 µM | > 100 µM | > 100 µM | > 100 µM | > 100 µM | > 100 µM | > 100 µM | – | > 100 µM | > 100 µM | > 100 µM |
| COC(=O)[C@@H]1CCCN1CCN1CCC[C@H]1C(=O)OC | – | – | > 100 µM | > 100 µM | > 100 µM | > 100 µM | > 100 µM | > 100 µM | > 100 µM | > 100 µM | > 100 µM |
| O=C(NCCCCCCNCc1cccc2ccccc12)Nc1cccc2ccccc12 | > 100 µM | – | > 100 µM | > 100 µM | > 100 µM | > 100 µM | > 100 µM | > 100 µM | > 100 µM | > 100 µM | > 100 µM |
| CC1Cn2c(nc3ccccc32)NC1=O (stereo not drawn) | > 100 µM | > 100 µM | > 100 µM | > 100 µM | > 100 µM | > 100 µM | > 100 µM | > 100 µM | – | > 100 µM | > 100 µM |
| O=C1CCCCC(=O)OC2(CCCCC2=O)CC1 (stereo not drawn) | – | > 100 µM | > 100 µM | > 100 µM | > 100 µM | > 100 µM | > 100 µM | > 100 µM | > 100 µM | > 100 µM | > 100 µM |
| Cc1ccc2c(c1)[nH]c1cc(C(F)(F)F)ccc1[p+]2=O (stereo not drawn) | 22.2 µM | 70.5 µM | > 100 µM | > 100 µM | > 100 µM | > 100 µM | > 100 µM | – | > 100 µM | 31.5 µM | > 100 µM |
| Cc1ccc2nc(Cl)c(/C=N/N3C(=O)/C(=C/c4ccccc4S)N=C3c3ccccc3)cc2c1 | > 100 µM | – | > 100 µM | > 100 µM | > 100 µM | > 100 µM | > 100 µM | 68.1 µM | > 100 µM | > 100 µM | – |
| CC(=O)C1=C(C)NC2C=CC=CN12 (stereo not drawn) | > 100 µM | > 100 µM | > 100 µM | > 100 µM | > 100 µM | > 100 µM | > 100 µM | > 100 µM | – | > 100 µM | > 100 µM |
| CCCCCC(=O)NC(=S)Nc1nn[nH]n1 | > 100 µM | – | > 100 µM | > 100 µM | > 100 µM | > 100 µM | > 100 µM | > 100 µM | > 100 µM | > 100 µM | > 100 µM |
| CCCSc1ccc2[nH]c(/N=C/c3ccco3)cc2c1 | 68.8 µM | – | > 100 µM | > 100 µM | > 100 µM | > 100 µM | > 100 µM | 1.4 µM | > 100 µM | 49.7 µM | 78.2 µM |
| COc1ccc(O)cc1 | > 100 µM | > 100 µM | > 100 µM | > 100 µM | > 100 µM | > 100 µM | > 100 µM | > 100 µM | – | > 100 µM | – |
| CCN1C(=O)C(=C/C=C/c2ccc([N+](=O)[O-])cc2)C(=O)N(CC)C1=S | 62.7 µM | > 100 µM | 34.3 µM | > 100 µM | 36.8 µM | 68.7 µM | > 100 µM | 95.8 µM | 33.3 µM | > 100 µM | – |
| O=C1Nc2c(ccc(Cl)c2I)C1=O | 36.8 µM | 46.4 µM | 28.2 µM | > 100 µM | 45.6 µM | 30.6 µM | 34.3 µM | 35.8 µM | – | 30.8 µM | 30.6 µM |
| NCCSc1nc2ccccc2c(=O)n1-c1ccccc1 | > 100 µM | > 100 µM | > 100 µM | > 100 µM | > 100 µM | > 100 µM | > 100 µM | – | – | > 100 µM | > 100 µM |
| C[C@H](N)C(=O)Nc1ccc(-c2nc3ccccc3s2)cc1 | 26.8 µM | 97.8 µM | 29.1 µM | 29.6 µM | 31 µM | 36.3 µM | 43.6 µM | – | 38.5 µM | 33.1 µM | 48 µM |
